The source of these data is patent publication US7208169B2, “Biphenyl carboxamides” (priority 2002, dated 2007).

One data set concerns Podosphaera leucotricha. Briefly: Podosphaera test (apple)/protective. The class given is in vivo. The settings on record: application rate 100 g/ha, protective, evaluation 10 days after inoculation. On the procedure: Podosphaera Test (Apple)/Protective
(§1) • 24.5 parts by weight of acetone • 24.5 parts by weight of dimethylacetamide Emulsifier: • 1.0 part by weight of alkylaryl polyglycol ether
(§2) To produce a suitable preparation of active compound, 1 part by weight of active compound is mixed with the stated amounts of solvents and emulsifier, and the concentrate is diluted with water to the desired concentration.
To test for protective activity, young plants are sprayed with the preparation of active compound at the stated application rate. After the spray coating has dried on, the plants are inoculated with an aqueous spore suspension of the apple mildew pathogen Podosphaera leucotricha. The plants are then placed in a greenhouse at about 23° C. and a relative atmospheric humidity of about 70%.
(§3) Evaluation is carried out 10 days after the inoculation. 0% means an efficacy which corresponds to that of the control, whereas an efficacy of 100% means that no infection is observed.

For the next data set, the system named is Sphaerotheca fuliginea. Description: Sphaerotheca test (cucumber)/protective. The class given is in vivo. As to conditions: Podosphaera fuliginea, 168 h, application rate 100 g/ha, protective, evaluation 7 days after inoculation, read-out: Efficacy in %. On the procedure: Sphaerotheca Test (Cucumber)/Protective
as §1, §2
To test for protective activity, young plants are sprayed with the preparation of active compound at the stated application rate. After the spray coating has dried on, the plants are inoculated with an aqueous spore suspension of Sphaerotheca fuliginea. The plants are then placed in a greenhouse at about 23° C. and a relative atmospheric humidity of about 70%.
(§4) Evaluation is carried out 7 days after the inoculation. 0% means an efficacy which corresponds to that of the control, whereas an efficacy of 100% means that no infection is observed.

A further data set deals with Venturia inaequalis. Briefly: Venturia test (apple)/protective. The class given is in vivo. As to conditions: application rate 100 g/ha, protective, evaluation 10 days after inoculation. As to the method: Venturia Test (Apple)/Protective
as §1, §2
To test for protective activity, young plants are sprayed with the preparation of active compound at the stated application rate. After the spray coating has dried on, the plants are inoculated with an aqueous conidia suspension of the apple scab pathogen Venturia inaequalis and then remain in an incubation cabin at about 20° C. in 100% relative atmospheric humidity for 1 day.
The plants are then placed in a greenhouse at about 21° C. and a relative atmospheric humidity of about 90%.
as §3

A short description of data set [1]: logP determination by HPLC on reversed-phase column (EEC Directive 79/831 Annex V.A8). It counts as physicochemical. The settings on record: pH 2.3, C18, 43° C., 0.1% aqueous phosphoric acid/acetonitrile, read-out: logP (pH2.3). As to the method:
The logP values given in the Preparation Examples were determined in accordance with EEC Directive 79/831 Annex V.A8 by HPLC (High Performance Liquid Chromatography) using a reversed-phase column (C 18). Temperature: 43° C.
Mobile phases for the determination in the acidic range: 0.1% aqueous phosphoric acid, acetonitrile; linear gradient from 10% acetonitrile to 90% acetonitrile.
Calibration was carried out using unbranched alkan-2-ones (having 3 to 16 carbon atoms) with known logP values (determination of the logP values by the retention times using linear interpolation between two successive alkanones).

A further data set relates to Alternaria solani. Description: Alternaria test (tomato)/protective. The class given is in vivo. The settings on record: application rate 750 g/ha, protective, evaluation 7 days after inoculation. On the procedure:
Alternaria Test (Tomato)/Protective
• 49 parts by weight of N,N-dimethylformamide Emulsifier: • 1 part by weight of alkylaryl polyglycol ether
(§5) To produce a suitable preparation of active compound, 1 part by weight of active compound is mixed with the stated amounts of solvent and emulsifier, and the concentrate is diluted with water to the desired concentration.
To test for protective activity, young tomato plants are sprayed with the preparation of active compound at the stated application rate. 1 day after the treatment, the plants are inoculated with a spore suspension of Alternaria solani and then remain at 100% relative humidity and at 20° C. for 24 h. The plants then remain at 96% relative atmospheric humidity and a temperature of 20° C.
as §4

For the next data set, the system named is Coriolus versicolor. Description: Inhibitory test using a giant colony of Basidiomycetes. It counts as cell-based. The settings on record: Trametes versicolor; 6 ppm active compound in nutrient agar; 26° C.; growth of fungal threads. As to the method:
Inhibitory Test Using a Giant Colony of Basidiomycetes Mycelium pieces were punched out of a giant colony of the Basidiomycetes species Coriolus versicolor and incubated at 26° C. on a nutrient agar medium containing malt extract peptone. The inhibition of the growth of the fungal threads on active-compound-containing nutrient media was compared to the longitudinal growth on nutrient media without added active compound and rated as inhibition in percent. In this test, for example, the following compounds according to the invention of the Preparation Examples show good activity: […]

The test system of the next data set is Puccinia recondita. Description: Puccinia test (wheat)/protective. As to conditions: application rate 500 g/ha, protective, evaluation 10 days after inoculation. It counts as in vivo. As to the method:
Puccinia Test (Wheat)/Protective
• 25 parts by weight of N,N-dimethylacetamide Emulsifier: • 0.6 part by weight of alkylaryl polyglycol ether
as §5
To test for protective activity, young plants are sprayed with the preparation of active compound at the stated application rate. After the spray coating has dried on, the plants are sprayed with a conidia suspension of Puccinia recondita. The plants remain in an incubation cabin at 20° C. and 100% relative atmospheric humidity for 48 hours.
The plants are then placed in a greenhouse at a temperature of about 20° C. and a relative atmospheric humidity of 80% to promote the development of rust pustules.
as §3

Read-outs that look alike come from different tables or passages of the source.

Turning to `O=C(Nc1ccccc1-c1ccc2c(c1)OC(F)(F)C(F)(F)O2)c1ccccc1C(F)(F)F` [Example 6], the figures for the Efficacy in % in the data set with Podosphaera leucotricha and in the data set with Venturia inaequalis were 100% and 99%, respectively. Moreover, the pest or weed control at 100 g/ha in the data set on Sphaerotheca fuliginea stood at 100%. Moreover, the chromatographic logP in data set [1] stood at 5.93.
Regarding `Cc1nc(C(F)(F)F)c(C(=O)Nc2ccccc2-c2ccc3c(c2)OC(F)(F)C(F)(F)O3)s1` [Example 10], the Efficacy in % in the data set on Podosphaera leucotricha and with Venturia inaequalis was 100% in each case. In addition, the pest or weed control at 100 g/ha with Sphaerotheca fuliginea worked out at 100%. In data set [1] (reversed-phase C18 HPLC column), the chromatographic logP worked out at 3.94.
In the case of `O=C(Nc1ccccc1-c1ccc2c(c1)OC(F)(F)O2)c1ccccc1C(F)(F)F` [Example 3], the Efficacy in % with Podosphaera leucotricha is 100%; with Alternaria solani it was 94%. Further, the pest or weed control at 100 g/ha in the data set with Sphaerotheca fuliginea was found to be 98%. In data set [1], the chromatographic logP stood at 3.94.
Turning to `OB(O)c1ccc2c(c1)OC(F)(F)C(F)(F)O2` [Example (V-1), 2,2,3,3-tetrafluoro-2,3-dihydro-1,4-benzodioxin-6-yl-boronic acid], the chromatographic logP in data set [1] (reversed-phase C18 HPLC column) was 2.49.
For `Cn1cc(C(=O)Nc2ccccc2I)c(C(F)(F)F)n1` [Example (IV-1), N-(2-iodophenyl)-1-methyl-3-(trifluoromethyl)-1H-pyrazole-4-carboxamide], in data set [1] (reversed-phase C18 HPLC column), the chromatographic logP was determined as 2.46.
Regarding `Cn1cc(C(=O)Nc2ccccc2-c2ccc3c(c2)OC(F)(F)O3)c(C(F)(F)F)n1` [Example 2, N-[2-(2,2-difluoro-1,3-benzodioxol-5-yl)-phenyl]-1-methyl-3-(trifluoromethyl)-1H-pyrazol-4-carboxamide], the Efficacy in % with Podosphaera leucotricha, in the data set with Alternaria solani and in the data set with Venturia inaequalis was 100% in each case. Moreover, the pest or weed control at 100 g/ha in the data set with Sphaerotheca fuliginea is 100%. Besides, the chromatographic logP in data set [1] (reversed-phase C18 HPLC column) turned out to be 3.37.
Consider `Cc1ccsc1C(=O)Nc1ccccc1-c1ccc2c(c1)OC(F)(F)O2` [Example 4], for which the pest or weed control at 100 g/ha in the data set on Sphaerotheca fuliginea turned out to be 100%. In the data set on Venturia inaequalis, the Efficacy in % is recorded as 98%. Moreover, the chromatographic logP in data set [1] (reversed-phase C18 HPLC column) was found to be 3.99.
For the compound `Cc1nc(C(F)(F)F)c(C(=O)Nc2ccccc2-c2ccc3c(c2)OC(F)(F)O3)s1` [Example 5], the Efficacy in % in the data set on Podosphaera leucotricha and with Venturia inaequalis was 100% throughout. In addition, in the data set on Sphaerotheca fuliginea, the pest or weed control at 100 g/ha was determined as 100%. Also, the chromatographic logP in data set [1] (reversed-phase C18 HPLC column) came out at 3.81.
In the case of `Cc1nn(C)c(F)c1C(=O)Nc1ccccc1-c1ccc2c(c1)OC(F)(F)C(F)(F)O2` [Example 1, 5-fluoro-1,3-dimethyl-N-[2-(2,2,3,3-tetrafluoro-2,3-dihydro-1,4-benzodioxin-6-yl)phenyl]-1H-pyrazole-4-carboxamide], the Efficacy in % in the data set with Podosphaera leucotricha, with Puccinia recondita and in the data set with Venturia inaequalis was 100% in each case. For the same compound, in the data set on Sphaerotheca fuliginea, the pest or weed control at 100 g/ha is 98%. Besides, the inhibition – broadly, how much of the control response was suppressed – at 6 ppm in the data set on Coriolus versicolor came out at 100%. For the same compound, the chromatographic logP in data set [1] (reversed-phase C18 HPLC column) came to 3.77.
`Cc1nn(C)c(F)c1C(=O)Nc1c(F)cc(F)cc1-c1ccc2c(c1)OCO2` [Example 15] came in with an Efficacy in % in the data set on Alternaria solani of 95%. Besides, the chromatographic logP in data set [1] (reversed-phase C18 HPLC column) amounted to 2.34.
Consider `Cc1nn(C)c(F)c1C(=O)Nc1ccccc1-c1ccc2c(c1)OC(F)(F)O2` [Example 19], for which the figures for the Efficacy in % in the data set with Podosphaera leucotricha and in the data set on Venturia inaequalis were 100% and 96%, respectively. In addition, the pest or weed control at 100 g/ha in the data set on Sphaerotheca fuliginea amounted to 92%. In addition, 6 ppm produced 100% inhibition in the data set on Coriolus versicolor. The chromatographic logP in data set [1] (reversed-phase C18 HPLC column) is 3.22.
